Experimental data as given in ChEMBL document CHEMBL5543083, “3,5-Disubstituted-thiazolidine-2,4-dione hybrids as antidiabetic agents: Design, synthesis, in-vitro and In vivo evaluation” (Eur J Med Chem, 2024).
pIC50: −log10 of the molar value. Values after ≈ are worked out from the molar mass of the structure shown. Active and inactive are the calls of the source. The rule behind the calls is not given here.

Legend:
Alpha amylase = target: T1, Alpha amylase (Homo sapiens, UniProt P0DUB6); test: Inhibition of Alpha-amylase (unknown origin); type: protein assay
T1 sequence (P0DUB6 whole entry): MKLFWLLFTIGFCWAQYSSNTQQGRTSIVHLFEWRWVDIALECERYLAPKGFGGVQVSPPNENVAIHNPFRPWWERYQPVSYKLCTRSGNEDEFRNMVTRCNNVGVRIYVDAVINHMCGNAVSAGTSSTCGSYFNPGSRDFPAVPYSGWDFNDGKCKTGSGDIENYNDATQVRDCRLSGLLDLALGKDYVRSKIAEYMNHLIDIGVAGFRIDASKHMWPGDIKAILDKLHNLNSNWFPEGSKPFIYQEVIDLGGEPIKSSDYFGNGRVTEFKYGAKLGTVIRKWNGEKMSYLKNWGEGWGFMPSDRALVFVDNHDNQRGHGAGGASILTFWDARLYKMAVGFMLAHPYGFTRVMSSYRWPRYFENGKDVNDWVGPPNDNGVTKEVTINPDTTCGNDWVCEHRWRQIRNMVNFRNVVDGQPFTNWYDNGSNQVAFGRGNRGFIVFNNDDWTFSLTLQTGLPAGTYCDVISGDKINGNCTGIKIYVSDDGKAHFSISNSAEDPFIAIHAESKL

Alpha-glucosidase = Alpha-glucosidase (Saccharomyces cerevisiae S288c, UniProt P53341+P38158+P07265); test: Inhibition of yeast Alpha glucosidase 4-nitrophenyl-alpha-D-glucopyranoside incubated for 15 to 20 mins by Bio-rad microplate reader analysis; type: protein assay
Alpha-amylase = target: T2, Alpha-amylase (Sus scrofa domesticus, UniProt Q7M328); test: Inhibition of porcine pancreatic Alpha-amylase using starch as substrate preincubated for 10 mins followed by substrate addition and measured after 15 mins by Bio-rad microplate reader analysis; conditions: for pIC50: read-out: IC50
T2 sequence (Q7M328 whole entry): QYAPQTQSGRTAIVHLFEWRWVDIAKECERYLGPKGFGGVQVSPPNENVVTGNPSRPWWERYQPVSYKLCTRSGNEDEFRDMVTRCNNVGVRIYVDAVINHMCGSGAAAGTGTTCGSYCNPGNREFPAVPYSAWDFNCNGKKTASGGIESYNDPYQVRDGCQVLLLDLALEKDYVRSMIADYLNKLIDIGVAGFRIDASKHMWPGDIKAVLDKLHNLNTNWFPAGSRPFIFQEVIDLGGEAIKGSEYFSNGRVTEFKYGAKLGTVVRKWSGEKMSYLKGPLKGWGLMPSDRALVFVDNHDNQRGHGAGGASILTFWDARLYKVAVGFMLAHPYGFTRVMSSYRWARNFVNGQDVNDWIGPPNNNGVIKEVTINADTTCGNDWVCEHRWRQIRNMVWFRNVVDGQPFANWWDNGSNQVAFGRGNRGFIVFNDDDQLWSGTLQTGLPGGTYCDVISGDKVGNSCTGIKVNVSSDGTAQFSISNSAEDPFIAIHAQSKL

[1] = Antioxidant activity assessed as DPPH radical scavenging activity measured for 30 mins by spectrophotometric analysis; type: functional; conditions: for pIC50: read-out: IC50
PANC-1 [2] = test: Cytotoxicity against human PANC-1 cells assessed as inhibition of cell growth; type: functional, cell-based; conditions: for pIC50: Homo sapiens, PANC-1, read-out: IC50
PANC-1 [3] = test: Induction of ROS production in high glucose-induced human PANC-1 cells assessed as maximum fluorescence intensity at 10 uM incubated for 30 mins DCFDA-staining based flow cytometry analysis (reference value: 15.09); type: functional; conditions: 0.5 h
[4] = Inhibition of Alpha glucosidase (unknown origin); set-up: species or system Homo sapiens
Rattus norvegicus [5] = test: Antidiabetic activity against streptozotocin-induced Wistar rat assessed as decrease in blood glucose level at 10 mg/kg, po measured at 30 mins by oral glucose test; type: functional, organism-based
[6] = Toxicity in Wistar rat assessed as decrease in body weight at 10 mg/kg, po measured on day 14; type: organism-based; conditions: in vivo, 336 h, time 14 day
[7] = Toxicity in Wistar rat assessed as decrease in body weight at 10 mg/kg, po measured on day 35; type: organism-based; conditions: in vivo, 840 h, time 35 day
Rattus norvegicus [8] = test: Antidiabetic activity against streptozotocin-induced Wistar rat assessed as effect on blood glucose level at 10 mg/kg, po measured on day 1; type: functional, organism-based; conditions: time 1.0 day
Rattus norvegicus [9] = test: Antidiabetic activity against streptozotocin-induced Wistar rat assessed as effect on blood glucose level at 10 mg/kg, po measured on day 4; type: functional, organism-based; conditions: time 4.0 day
Rattus norvegicus [10] = test: Antidiabetic activity against streptozotocin-induced Wistar rat assessed as increase in PPAR-gamma level at 10 mg/kg, po measured upto 35 days by ELISA analysis; type: functional, organism-based; conditions: time <= 35.0 day
Rattus norvegicus [11] = test: Antidiabetic activity against streptozotocin-induced Wistar rat assessed as decrease in HDL level at 10 mg/kg, po measured upto 35 days; type: functional, organism-based; conditions: time <= 35.0 day
Rattus norvegicus [12] = test: Antidiabetic activity against streptozotocin-induced Wistar rat assessed as decrease in triglyceride level at 10 mg/kg, po measured upto 35 days; type: functional, organism-based; conditions: time <= 35.0 day
Rattus norvegicus [13] = test: Antidiabetic activity against streptozotocin-induced Wistar rat assessed as decrease in MDA level at 10 mg/kg, po measured upto 35 days; type: functional, organism-based; conditions: time <= 35.0 day
Rattus norvegicus [14] = test: Antidiabetic activity against streptozotocin-induced Wistar rat assessed as decrease in SOD level at 10 mg/kg, po measured upto 35 days; type: functional, organism-based; conditions: time <= 35.0 day
Rattus norvegicus [15] = test: Antidiabetic activity against Wistar rat assessed as effect on glutathione level at 10 mg/kg, po measured upto 35 days; type: functional, organism-based; conditions: time <= 35.0 day
Rattus norvegicus [16] = test: Antidiabetic activity against streptozotocin-induced Wistar rat assessed as increase in serum ALP level at 10 mg/kg, po measured upto 35 days; type: functional, organism-based; conditions: time <= 35.0 day
Rattus norvegicus [17] = test: Antidiabetic activity against streptozotocin-induced Wistar rat assessed as increase in IL1-beta level in Pancreas at 10 mg/kg, po measured upto 35 days; type: functional, organism-based; conditions: time <= 35.0 day
[18] = Toxicity in streptozotocin-induced Wistar rat assessed as change in blood lymphocyte count at 10 mg/kg, po measured up to 35 days; type: organism-based; conditions: in vivo, 840 h, time < 35 day
[19] = Toxicity in streptozotocin-induced Wistar rat assessed as decrease in glomeruli shrinkage in kidney at 10 mg/kg, po measured up to 35 days; type: organism-based; conditions: in vivo, 840 h, time < 35 day
[20] = Toxicity in streptozotocin-induced Wistar rat assessed as morphological changes in liver at 10 mg/kg, po measured up to 35 days; type: organism-based; conditions: in vivo, 840 h, time < 35 day

SMILES | IC50 (Alpha-glucosidase) [µM] | pIC50 (Alpha-amylase) | pIC50 [1] | pIC50 (PANC-1 [2]) | Flu intensity (PANC-1 [3]) | also measured
N#Cc1ccccc1-c1ccc(N2C(=O)S/C(=C\c3ccccc3Oc3ccccc3)C2=O)cc1 | – | – | – | – | – | IC50 (Alpha amylase): 0.13 mg/L (≈ 0.274 µM)
O=C1S/C(=C\c2ccc(-c3ccccc3)cc2)C(=O)N1Cc1cccc([N+](=O)[O-])c1 | 15.37 | 4.08 | 4.49 | 3.90 | 23092 | –
COc1ccc(/C=C2\SC(=O)N(Cc3cccc([N+](=O)[O-])c3)C2=O)c(OC)c1 | 65.52 | 4.52 | 4.49 | 3.78 | 37797 | –
O=C1O[C@H]([C@@H](O)CO)C(O)=C1O [ASCORBIC ACID] | – | – | 4.60 | – | – | IC50 (Alpha-amylase): Not Active
COc1cc(/C=C2\SC(=O)N(Cc3cccc([N+](=O)[O-])c3)C2=O)cc(OC)c1OC | 39.68 | 4.41 | 4.17 | 3.71 | – | –
O=C1S/C(=C\c2ccc(O)cc2)C(=O)N1Cc1cccc([N+](=O)[O-])c1 | 29.28 | 4.37 | 4.46 | 4.49 | 35829 | –
O=C(O)CN1C(=O)S/C(=C\c2cn(-c3ccccc3)nc2-c2ccc([N+](=O)[O-])cc2)C1=O | – | – | – | – | – | IC50 (Alpha amylase): 4.08 mg/L (≈ 9.06 µM)
COc1cc(/C=C2\SC(=O)N(Cc3cccc([N+](=O)[O-])c3)C2=O)ccc1O | 19.73 | 4.39 | 4.42 | 3.72 | 66221 | –
C=CCN1C(=O)S/C(=C\c2ccc(Cl)cc2Cl)C1=O | – | – | – | – | – | IC50 [4]: 18.19 mg/L (≈ 57.9 µM); IC50 (Alpha amylase): 43.85 mg/L (≈ 140 µM)
COc1cc(OC)c(OC)cc1/C=C1\SC(=O)N(Cc2cccc([N+](=O)[O-])c2)C1=O | 54.01 | 4.51 | 4.51 | 3.69 | 25238 | –
O=C1S/C(=C\c2ccc(Cl)cc2)C(=O)N1Cc1cccc([N+](=O)[O-])c1 | 22.61 | 4.35 | 4.49 | 4.02 | – | –
COc1ccc(/C=C2\SC(=O)N(Cc3cccc([N+](=O)[O-])c3)C2=O)cc1O | 32.94 | 4.55 | 4.15 | 3.67 | 72737 | –
COc1ccc(OC)c(/C=C2\SC(=O)N(Cc3cccc([N+](=O)[O-])c3)C2=O)c1 | 201 | 4.32 | 4.38 | 4.20 | 58455 | –
COc1ccc(/C=C2\SC(=O)N(Cc3cccc([N+](=O)[O-])c3)C2=O)cc1 | 57.1 | 3.93 | 3.49 | 3.98 | 84568 | –
O=C1S/C(=C\c2c(Cl)cccc2Cl)C(=O)N1Cc1cccc([N+](=O)[O-])c1 | 37.94 | 4.60 | 4.51 | 3.91 | 25204 | –
COc1cccc(/C=C2\SC(=O)N(Cc3cccc([N+](=O)[O-])c3)C2=O)c1OC | 153.1 | 4.10 | 4.87 | 3.75 | 2271 | –
O=C1S/C(=C\c2ccc3c(c2)OCO3)C(=O)N1Cc1cn(-c2ccccc2Cl)nn1 | – | – | – | – | – | IC50 [4]: 0.1 mg/L (≈ 0.227 µM)
O=C1S/C(=C\c2c[nH]c3ccccc23)C(=O)N1Cc1ccccc1 | 25.76 | 4.08 | 4.52 | 3.72 | 22679 | –
C[C@H]1O[C@H](O[C@H]2[C@H](O)[C@@H](O)[C@@H](O[C@H]3[C@H](O)[C@@H](O)C(O)O[C@@H]3CO)O[C@@H]2CO)[C@H](O)[C@@H](O)[C@@H]1N[C@H]1C=C(CO)[C@@H](O)[C@H](O)[C@H]1O (some centres undefined) [ACARBOSE] | – | – | – | – | 1455 | IC50 [1]: Not Active; IC50 (PANC-1 [2]; panc-1): Not Active
O=C1S/C(=C\c2cccc(Cl)c2Cl)C(=O)N1Cc1cccc([N+](=O)[O-])c1 | 54 | 4.52 | 4.35 | 3.75 | 65017 | –
COc1cc(OC)c(/C=C2\SC(=O)N(Cc3cccc([N+](=O)[O-])c3)C2=O)c(OC)c1 | 11.37 | 4.35 | 4.55 | 3.75 | 22596 | –
CCc1ccc(CCOc2ccc(CC3SC(=O)NC3=O)cc2)nc1 (centres undefined) [PIOGLITAZONE] | – | – | – | – | – | Activity (Rattus norvegicus [5]): Active; Activity [6]: Non-Toxic; Activity [7]: Toxic; Activity (Rattus norvegicus [8]): Active; Activity (Rattus norvegicus [9]): Active; Activity (Rattus norvegicus [10]): Active; Activity (Rattus norvegicus [11]): Active; Activity (Rattus norvegicus [12]): Active; Activity (Rattus norvegicus [13]): Active; Activity (Rattus norvegicus [14]): Active; Activity (Rattus norvegicus [15]): Active; Activity (Rattus norvegicus [16]): Active; Activity (Rattus norvegicus [17]): Active; Activity [18]: Non-Toxic; Activity [19]: Toxic; Activity [20]: Non-Toxic
CN(C)c1ccc(/C=C2\SC(=O)N(Cc3cccc([N+](=O)[O-])c3)C2=O)cc1 | 16.9 | 4.09 | 3.68 | 3.71 | 76992 | –
